According to US7645781B2, “N-aryl-2-oxazolidinone-5-carboxamides and their derivatives” (Pfizer Inc, priority 2002, dated 2010):
Values after ≈ are worked out from the molar mass of the structure shown.

How the values were obtained:
[1] = system: Staphylococcus aureus (SAUR 9213); assay: MIC by standard agar dilution method; format: cell-based; settings: Mueller Hinton agar, incubated overnight at 35° C., read-out: MIC
Description: The antibacterial agents of this invention have useful activity against a variety of organisms. The in vitro activity of compounds of this invention can be assessed by standard testing procedures such as the determination of minimum inhibitory concentration (MIC) by agar dilution as described in “Approved Standard. Methods for Dilution Antimicrobial Susceptibility Tests for Bacteria That Grow Aerobically”, 3rd. ed., published 1993 by the National Committee for Clinical Laboratory Standards, Villanova, Pa., USA. The in vitro MICs of test compounds are determined by a standard agar dilution method. A stock drug solution of each analog is prepared in the preferred solvent, usually DMSO:H2O (1:3). Serial 2-fold dilutions of each sample are made using 1.0 ml aliquots of sterile distilled water. To each 1.0 ml aliquot of drug is added 9 ml of molten Mueller Hinton agar medium. The drug-supplemented agar is mixed, poured into 15×100 mm petri dishes, and allowed to solidify and dry prior to inoculation. Vials of each of the test organisms are maintained frozen in the vapor phase of a liquid nitrogen freezer. Test cultures are grown overnight at 35° C. on the medium appropriate for the organism. Colonies are harvested with a sterile swab, and cell suspensions are prepared in Trypticase Soy broth (TSB) to equal the turbidity of a 0.5 McFarland standard. A 1:20 dilution of each suspension is made in TSB. The plates containing the drug supplemented agar are inoculated with a 0.001 ml drop of the cell suspension using a Steers replicator, yielding approximately 10^4 to 10^5 cells per spot. The plates are incubated overnight at 35° C. Following incubation the Minimum Inhibitory Concentration (MIC μg/ml), the lowest concentration of drug that inhibits visible growth of the organism, is read and recorded.

| Compound | MIC [1] [mg/L] | melting point |
| --- | --- | --- |
| CNC(=O)[C@H]1CN(c2cc(F)c3c(c2)CCC(=O)N3C)C(=O)O1 [Example 83, (5R)-N-Methyl-3-(8-fluoro-1-methyl-2-oxo-1,2,3,4-tetrahydroquinolin-6-yl)-2-oxo-5-oxazolidinecarboxamide] | 2 (≈ 6.22 µM) | 264 to 265 °C |
| NC(=O)[C@H]1CN(c2ccc([C@H]3CC[S@+]([O-])CC3)cc2)C(=O)O1 [Example 27, (5R)-3-[4-(trans-tetrahydro-1-oxido-2H-thiopyran-4-yl)phenyl]-2-oxo-5-oxazolidinecarboxamide] | 8 (≈ 24.8 µM) | 174 to 175 °C |
| NC(=O)[C@H]1CN(c2cc(F)c([C@H]3CC[S@@+]([O-])CC3)c(F)c2)C(=O)O1 [Example 46, (5R)-(−)-3-[3,5-Difluoro-4-(cis-tetrahydro-1-oxido-2H-thiopyran-4-yl)phenyl]-2-oxo-5-oxazolidinecarboxamide] | 8 (≈ 22.3 µM) | 283 to 285 °C (dec.) |
| NC(=O)[C@H]1CN(c2ccc(-c3ccncc3)c(F)c2)C(=O)O1 [Example 8, (5R)-(−)-3-[4-(4-Pyridyl)-3-fluorophenyl]-2-oxo-5-oxazolidinecarboxamide] | 1 (≈ 3.32 µM) | 256 to 259 °C (dec.) |
| NC(=O)[C@H]1CN(c2ccc(C3CCS(=O)(=O)CC3)cc2)C(=O)O1 [Example 25, (5R)-(−)-3-[4-(tetrahydro-2H-thiopyran-4-yl)phenyl]-2-oxo-5-oxazolidinecarboxamide S,S-dioxide] | 8 (≈ 23.6 µM) | 211 to 212 °C |
| NC(=O)[C@H]1CN(c2ccc(C3CCS(=O)(=O)CC3)c(F)c2)C(=O)O1 [Example 13, (5R)-(−)-3-[4-(Tetrahydro-2H-thiopyran-4-yl)-3-fluorophenyl]-2-oxo-5-oxazolidinecarboxamide S,S-dioxide] | 2 (≈ 5.61 µM) | 229 to 231 °C (dec.) |
| CNC(=O)[C@H]1CN(c2ccc(N3CCOCC3)c(F)c2)C(=O)O1 [Example 2, (5R)-(−)-3-[3-Fluoro-4-(4-morpholinyl)phenyl]-N-methyl-2-oxo-5-oxazolidinecarboxamide] | 8 (≈ 24.7 µM) | 182 to 183 °C (dec.) |
| NC(=O)[C@H]1CN(c2ccc([C@H]3CC[S@@+]([O-])CC3)cc2)C(=O)O1 [Example 26, (5R)-3-[4-(cis-tetrahydro-1-oxido-2H-thiopyran-4-yl)phenyl]-2-oxo-5-oxazolidinecarboxamide] | 16 (≈ 49.6 µM) | 269 to 273 °C (dec.) |
| Cn1c(=O)sc2cc(N3C[C@H](C(N)=O)OC3=O)ccc21 [Example 29, (5R)-(−)-3-(2,3-Dihydro-3-methyl-2-oxo-6-benzothiazolyl)-2-oxo-5-oxazolidinecarboxamide] | 1 (≈ 3.41 µM) | 274 to 276 °C (dec.) |
| CONC(=O)[C@H]1CN(c2ccc(N3CCOCC3)c(F)c2)C(=O)O1 [Example 5, (5R)-(−)-3-[3-Fluoro-4-(4-morpholinyl)phenyl]-N-methoxy-2-oxo-5-oxazolidinecarboxamide] | 16 (≈ 47.2 µM) | 206 to 208 °C (dec.) |
| O=C(NO)[C@H]1CN(c2ccc(N3CCOCC3)c(F)c2)C(=O)O1 [Example 6, (5R)-(−)-3-[3-Fluoro-4-(4-morpholinyl)phenyl]-N-hydroxy-2-oxo-5-oxazolidinecarboxamide] | 16 (≈ 49.2 µM) | 141 to 143 °C |
| NC(=O)[C@H]1CN(c2ccc(C3=CCOCC3)c(F)c2)C(=O)O1 [Example 9, (5R)-(−)-3-[4-(3,6-Dihydro-2H-pyran-4-yl)-3-fluorophenyl]-2-oxo-5-oxazolidinecarboxamide] | 4 (≈ 13.1 µM) | 164 to 169 °C |
| NC(=O)[C@H]1CN(c2ccc(N3CCN(C(=O)CO)CC3)c(F)c2)C(=O)O1 [Example 14, (5R)-(−)-3-[3-Fluoro-4-[4-(hydroxyacetyl)-1-piperazinyl]phenyl]-2-oxo-5-oxazolidinecarboxamide] | 4 (≈ 10.9 µM) | 232 to 235 °C (dec.) |
| Cn1c(=O)sc2cc(N3C[C@H](C(=O)NCCF)OC3=O)ccc21 [Example 35, (5R)-N-(2-Fluoroethyl)-3-(2,3-dihydro-3-methyl-2-oxo-6-benzothiazolyl)-2-oxo-5-oxazolidinecarboxamide] | 2 (≈ 5.89 µM) | 201 to 203 °C |
| CN1C(=O)CCc2cc(N3C[C@H](C(N)=O)OC3=O)cc(F)c21 [Example 82, (5R)-3-(8-Fluoro-1-methyl-2-oxo-1,2,3,4-tetrahydroquinolin-6-yl)-2-oxo-5-oxazolidinecarboxamide] | 1 (≈ 3.25 µM) | 260 to 262 °C |
| NC(=O)[C@H]1CN(c2cc(F)c(C3CCS(=O)(=O)CC3)c(F)c2)C(=O)O1 [Example 45, (5R)-3-[3,5-Difluoro-4-(Tetrahydro-2H-thiopyran-4-yl)phenyl]-2-oxo-5-oxazolidinecarboxamide S,S-dioxide] | 4 (≈ 10.7 µM) | 243 to 245 °C |
| NC(=O)[C@H]1CN(c2ccc(C3=CCS(=O)(=O)CC3)c(F)c2)C(=O)O1 [Example 12, (5R)-(−)-3-[4-(3,6-Dihydro-2H-thiopyran-4-yl)-3-fluorophenyl]-2-oxo-5-oxazolidinecarboxamide S,S-dioxide] | 2 (≈ 5.64 µM) | 206 to 208 °C |
| NC(=O)[C@H]1CN(c2ccc(N3Cc4cccnc4C3)c(F)c2)C(=O)O1 [Example 54, (5R)-3-[4-(5,7-Dihydro-6H-pyrrolo[3,4-b]pyridin-6-yl)-3-fluorophenyl]-2-oxo-5-oxazolidinecarboxamide] | 0.5 (≈ 1.46 µM) | 257 °C (dec.) |
| NC(=O)[C@H]1CN(c2ccc(N3CCS(=O)(=O)CC3)c(F)c2)C(=O)O1 [Example 20, (5R)-(−)-3-[3-Fluoro-4-(thiomorpholin-4-yl)phenyl]-2-oxo-5-oxazolidinecarboxamide S,S-dioxide] | 4 (≈ 11.2 µM) | 245 to 247 °C (dec.) |
| NC(=O)[C@H]1CN(c2ccc(C3=NNC(=O)CS3)c(F)c2)C(=O)O1 [Example 64, (5R)-3-[3-Fluoro-4-(5-oxo-5,6-dihydro-4H-[1,3,4]thiadiazin-2-yl)phenyl]-2-oxo-5-oxazolidinecarboxamide] | 0.5 (≈ 1.48 µM) | 249 to 251 °C |
| C[C@@H]1Cc2cc(N3C[C@H](C(N)=O)OC3=O)ccc2N1C(=O)CO [Example 50, (5R)-3-[(2R)-2,3-Dihydro-1-(hydroxyacetyl)-2-methyl-1H-indol-5-yl]-2-oxo-5-oxazolidinecarboxamide] | 2 (≈ 6.26 µM) | 198 to 200 °C |
| NC(=O)[C@H]1CN(c2ccc(N3CCOCC3)c(F)c2)C(=O)O1 [Example 1, (5R)-(−)-3-[3-Fluoro-4-(4-morpholinyl)phenyl]-2-oxo-5-oxazolidinecarboxamide] | 4 (≈ 12.9 µM) | 185 to 187 °C (dec.) |
| NC(=O)[C@H]1CN(c2cc(F)c(N3CCOCC3)c(F)c2)C(=O)O1 [Example 17, (5R)-(−)-3-[3,5-Difluoro-4-(4-morpholinyl)phenyl]-2-oxo-5-oxazolidinecarboxamide] | 4 (≈ 12.2 µM) | 181 to 183 °C |
| CCn1c(=O)sc2cc(N3C[C@H](C(=O)NC)OC3=O)ccc21 [Example 36, (5R)-(−)-N-Methyl-3-(2,3-dihydro-3-ethyl-2-oxo-6-benzothiazolyl)-2-oxo-5-oxazolidinecarboxamide] | 2 (≈ 6.22 µM) | 227 to 229 °C |
| NC(=O)[C@H]1CN(c2ccc(C3CCOCC3)c(F)c2)C(=O)O1 [Example 10, (5R)-(−)-3-[4-(Tetrahydro-2H-pyran-4-yl)-3-fluorophenyl]-2-oxo-5-oxazolidinecarboxamide] | 4 (≈ 13 µM) | 153 to 156 °C |
| CNC(=O)[C@H]1CN(c2cc(F)c(N3CCS(=O)(=O)CC3)c(F)c2)C(=O)O1 [Example 44, (5R)-(−)-N-Methyl-3-[3,5-difluoro-4-(thiomorpholin-4-yl)phenyl]-2-oxo-5-oxazolidinecarboxamide S,S-dioxide] | 4 (≈ 10.3 µM) | 243 to 246 °C |
| CNC(=O)[C@H]1CN(c2ccc3c(c2)sc(=O)n3C)C(=O)O1 [Example 32, (5R)-(−)-N-Methyl-3-(2,3-dihydro-3-methyl-2-oxo-6-benzothiazolyl)-2-oxo-5-oxazolidinecarboxamide] | 1 (≈ 3.25 µM) | 264 to 267 °C |
| NC(=O)[C@H]1CN(c2cc(F)c(N3CCS(=O)(=O)CC3)c(F)c2)C(=O)O1 [Example 15, (5R)-(−)-3-[4-(Thiomorpholin-4-yl)-3,5-difluorophenyl]-2-oxo-5-oxazolidinecarboxamide S,S-dioxide] | 2 (≈ 5.33 µM) | 245 to 248 °C (dec.) |
| CCNC(=O)[C@H]1CN(c2ccc3c(c2)sc(=O)n3C)C(=O)O1 [Example 33, (5R)-(−)-N-Ethyl-3-(2,3-dihydro-3-methyl-2-oxo-6-benzothiazolyl)-2-oxo-5-oxazolidinecarboxamide] | 4 (≈ 12.4 µM) | 224.5 to 226 °C |
